The target of data set [1] is T1, human H3 receptor (Homo sapiens, UniProt Q9Y5N1).
T1 construct: expressed in transfected cells
Nature of the data set: Human H3 radioligand binding ([3H]-N-alpha-methylhistamine, SPA). As to conditions: human H3 binding, Table D; read-out: Human H3 Ki. A digest of the protocol:
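Compounds (0.01 nM-30 μM) competed with approximately 1 nM [3H]-N-alpha-methylhistamine for human H3 receptor in membranes of stably transfected CHO cells, 10 μg protein per well, in Tris-HCl pH 7.4/MgCl2/BSA buffer for 4 h at room temperature. Bound radioligand measured by scintillation proximity; 10 μM clobenpropit gave non-specific binding.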

Data set [2] concerns the target T2, rat histamine H3 receptor (Rattus norvegicus, UniProt Q9QYN8).
T2 construct: encoding the entire 445-amino-acid rat histamine H3 receptor; expressed in transfected cells; membrane preparation
Put plainly: Rat H3 radioligand binding ([3H]-N-alpha-methylhistamine, SPA). As to conditions: rat H3 binding, Table D; read-out: Rat H3 Ki. The gist of the method:
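SPA-bead binding assay using [3H]-N-alpha-methylhistamine (approximately 1 nM final) with test compounds from 0.01 nM to 30 μM. Rat H3 receptor membranes came from stably transfected CHO-A3 cells; incubation ran 4 h at room temperature, in the dark, in Tris pH 7.4 buffer with MgCl2 and BSA. Clobenpropit (10 μM) gave non-specific binding.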

T2 sequence (Q9QYN8 whole entry): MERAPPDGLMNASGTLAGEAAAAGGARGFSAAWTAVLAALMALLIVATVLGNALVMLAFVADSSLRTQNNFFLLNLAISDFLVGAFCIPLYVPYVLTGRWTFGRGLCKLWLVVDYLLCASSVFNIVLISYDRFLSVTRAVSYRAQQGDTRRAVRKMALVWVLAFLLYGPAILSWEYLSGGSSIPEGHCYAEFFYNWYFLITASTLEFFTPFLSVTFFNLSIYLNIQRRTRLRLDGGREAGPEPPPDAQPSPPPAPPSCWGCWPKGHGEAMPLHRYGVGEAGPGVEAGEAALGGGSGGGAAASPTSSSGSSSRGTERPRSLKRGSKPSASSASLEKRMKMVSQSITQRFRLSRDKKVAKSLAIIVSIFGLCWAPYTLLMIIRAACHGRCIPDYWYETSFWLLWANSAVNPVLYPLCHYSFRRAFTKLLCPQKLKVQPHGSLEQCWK
T1 sequence (Q9Y5N1 whole entry): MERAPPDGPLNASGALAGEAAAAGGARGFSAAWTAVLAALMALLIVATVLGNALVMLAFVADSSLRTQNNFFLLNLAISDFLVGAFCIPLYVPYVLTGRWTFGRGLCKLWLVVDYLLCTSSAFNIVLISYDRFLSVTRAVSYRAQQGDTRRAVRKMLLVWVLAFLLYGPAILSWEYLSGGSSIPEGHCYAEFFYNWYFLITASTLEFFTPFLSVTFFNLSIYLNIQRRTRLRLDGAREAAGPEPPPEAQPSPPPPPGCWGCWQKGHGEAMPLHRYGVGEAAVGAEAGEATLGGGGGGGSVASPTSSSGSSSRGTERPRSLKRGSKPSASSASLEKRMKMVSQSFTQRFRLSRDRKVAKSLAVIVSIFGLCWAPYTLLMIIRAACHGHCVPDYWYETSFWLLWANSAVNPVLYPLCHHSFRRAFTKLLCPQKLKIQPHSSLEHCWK

As to `CN(C)C(=O)N1CCC(COc2ccc3c(c2)CCC2(CCN(C4CCC4)CC2)O3)CC1` [Example 576], the melting point (as a rule, the temperature, or range, at which the solid turns liquid) is 230 to 232 °C. In addition, in data set [1], the Ki (in general, a dissociation constant, usually derived from enzyme kinetics or from competition with a known ligand) is under 200 nM. The Ki in data set [2] was under 200 nM.

With `COCCN(C)C(=O)c1ccc(-c2ccc3c(c2)COC2(CCN(C4CCC4)CC2)O3)cc1Cl` [Example 577], the melting point fell in the range of 105 to 107 °C. Further, the Ki in data set [1] is under 200 nM. Besides, in data set [2], the Ki was under 200 nM.

`COCCNC(=O)c1cc(-c2ccc3c(c2)COC2(CCN(C4CCC4)CC2)O3)cs1` [Example 578] gave a melting point of 145 to 146 °C. For the same compound, the Ki in data set [1] was under 200 nM. Also, in data set [2], the Ki was under 200 nM.

With `O=C(NC[C@H]1CCCO1)c1ccc(-c2ccc3c(c2)COC2(CCN(C4CCC4)CC2)O3)cc1Cl` [Example 579], the melting point lay within 155 to 157 °C. Also, the Ki in data set [1] is under 200 nM. Further, the Ki in data set [2] was under 200 nM.

For `O=C(N[C@H]1CCOC1)c1ccc(-c2ccc3c(c2)CCC2(CCN(C4CCC4)CC2)O3)cc1` [Example 580], the melting point fell in the range of 196 to 198 °C. Besides, the Ki in data set [1] is under 200 nM. Besides, the Ki in data set [2] is under 200 nM.

Compound `CNC(=O)c1cc(-c2ccc3c(c2)CCC2(CCN(C4CCC4)C2)O3)ccc1Cl` (stereo not drawn) [Example 581] registered a melting point of 100 to 103 °C. Besides, the Ki in data set [1] is under 200 nM. The Ki in data set [2] lay in the range of 200 to 1000 nM.

`CNC(=O)c1cc(-c2ccc3c(c2)CCC2(CCN(C4CCC4)CC2)O3)ccc1Cl` [Example 582] had a melting point of 89 to 91 °C. Moreover, the Ki in data set [1] was under 200 nM. Moreover, the Ki in data set [2] was under 200 nM.

`O=S(=O)(c1ccccc1)C1CCN(c2ccc3c(c2)COC2(CCN(C4CCC4)CC2)O3)CC1` [Example 583] registered a melting point of 78.4 to 80.2 °C. Also, in data set [1], the Ki is under 200 nM. Moreover, the Ki in data set [2] was under 200 nM.

The compound `CNC(=O)c1cc(-c2ccc3c(c2)COC2(CCN(C4CCC4)CC2)O3)ccc1Cl` [Example 584] had a melting point of 198 to 200 °C. The Ki in data set [1] is under 200 nM. Also, the Ki in data set [2] is under 200 nM.

Regarding `O=C(NC[C@@H]1CCCO1)c1ccc(-c2ccc3c(c2)COC2(CCN(C4CCC4)CC2)O3)cc1Cl` [Example 585], the melting point was in the range of 159 to 161 °C. Moreover, the Ki in data set [1] was under 200 nM. The Ki in data set [2] is under 200 nM.

Compound `CN(C)C(=O)CC1CCN(c2ccc3c(c2)COC2(CCN(C4CCC4)CC2)O3)CC1` [Example 586] showed a melting point of 68.5 to 70.2 °C. Further, in data set [1], the Ki was under 200 nM. In data set [2], the Ki is under 200 nM.

In turn, `CC(C)NC(=O)c1ccc(-c2ccc3c(c2)CCC2(CCN(C4CCC4)CC2)O3)cc1Cl` [Example 587] came in with a melting point of 155 to 156 °C. The Ki in data set [1] was under 200 nM. Moreover, in data set [2], the Ki was under 200 nM.

Regarding `COCCNC(=O)CC1CCN(c2ccc3c(c2)COC2(CCN(C4CCC4)CC2)O3)CC1` [Example 588], the melting point is 150.1 to 152.2 °C. For the same compound, the Ki in data set [1] was under 200 nM. In data set [2], the Ki was under 200 nM.

Turning to `O=C(NC[C@@H]1CCCO1)c1ccc(-c2ccc3c(c2)COC2(CCN(C4CCC4)CC2)O3)cc1F` [Example 589], the melting point is 128 to 130 °C. Also, the Ki in data set [1] is under 200 nM. In data set [2], the Ki was under 200 nM.

`CNC(=O)c1ccc(-c2ccc3c(c2)COC2(CCN(C4CCC4)CC2)O3)nc1` [Example 590]: the melting point lay in the range of 175 to 177 °C. Besides, the Ki in data set [1] was under 200 nM. Further, in data set [2], the Ki was under 200 nM.

`COC[C@H](C)NC(=O)c1ccc(-c2ccc3c(c2)CCC2(CCN(C4CCC4)CC2)O3)cc1Cl` [Example 591] returned a melting point of 120 to 122 °C. Besides, the Ki in data set [1] is under 200 nM. Also, the Ki in data set [2] was under 200 nM.

For `c1cc2c(cc1OCC1CCNCC1)CCC1(CCN(C3CCC3)CC1)O2` [Example 592], the melting point fell in the range of 292 to 294 °C. In data set [1], the Ki was under 200 nM. Besides, the Ki in data set [2] was under 200 nM.

As for `CN(C)C(=O)/C=C/c1ccc2c(c1)CCC1(CCN(C3CCC3)CC1)O2` [Example 594], the melting point is 187 to 189 °C. The Ki in data set [1] is under 200 nM. The Ki in data set [2] lay within 200 to 1000 nM.

`CNC(=O)c1ccc(-c2ccc3c(c2)CCC2(CCN(C4CCC4)CC2)O3)nc1` [Example 595] registered a melting point of 192 to 194 °C. Further, in data set [1], the Ki is under 200 nM. The Ki in data set [2] is under 200 nM.

In turn, `CC(C)NC(=O)c1ccc(-c2ccc3c(c2)COC2(CCN(C4CCC4)CC2)O3)cc1Cl` [Example 596] displayed a melting point of 186 to 187.5 °C. For the same compound, the Ki in data set [1] is under 200 nM. Further, in data set [2], the Ki was under 200 nM.

Compound `COC[C@H](C)NC(=O)c1ccc(-c2ccc3c(c2)COC2(CCN(C4CCC4)CC2)O3)cc1Cl` [Example 598] had a melting point of 150 to 152 °C. For the same compound, the Ki in data set [1] was under 200 nM. The Ki in data set [2] was under 200 nM.

On to `O=C(NC[C@@H]1CCCO1)c1c(F)cc(-c2ccc3c(c2)COC2(CCN(C4CCC4)CC2)O3)cc1F` [Example 599], for which the melting point is 142 to 145 °C. In addition, the Ki in data set [1] is under 200 nM. The Ki in data set [2] is under 200 nM.

`O=C(N[C@H]1CCOC1)c1ccc(-c2ccc3c(c2)COC2(CCN(C4CCC4)CC2)O3)cc1` [Example 600] came in with a melting point of 205 to 207 °C. Further, in data set [1], the Ki is under 200 nM. In data set [2], the Ki was under 200 nM.

Consider `OCC1CCN(c2ccc3c(c2)COC2(CCN(C4CCC4)CC2)O3)CC1` [Example 601], for which the melting point lay in the range of 88.9 to 91.4 °C. In addition, the Ki in data set [1] is under 200 nM. For the same compound, the Ki in data set [2] is under 200 nM.

As for `CN(C)C(=O)c1cccc(COc2ccc3c(c2)CCC2(CCN(C4CCC4)CC2)O3)c1` [Example 602], the melting point lay within 183 to 185 °C. The Ki in data set [1] is under 200 nM. Further, the Ki in data set [2] was under 200 nM.

Take `CN(C)C(=O)CCc1ccc2c(c1)CCC1(CCN(C3CCC3)CC1)O2` [Example 603]: the melting point fell in the range of 180 to 182 °C. In data set [1], the Ki is under 200 nM. Also, the Ki in data set [2] was under 200 nM.

Consider `NC(=O)c1ccc(-c2ccc3c(c2)COC2(CCN(C4CCC4)CC2)O3)cc1Cl` [Example 604], for which the melting point fell in the range of 164 to 166 °C. Further, the Ki in data set [1] was under 200 nM. Further, in data set [2], the Ki is under 200 nM.

Turning to `O=C(N[C@@H]1CCOC1)c1ccc(-c2ccc3c(c2)COC2(CCN(C4CCC4)CC2)O3)cc1Cl` [Example 605], the melting point lay in the range of 189 to 191 °C. Further, in data set [1], the Ki was under 200 nM. For the same compound, the Ki in data set [2] is under 200 nM.

The compound `O=C(NC1CCOCC1)c1ccc(-c2ccc3c(c2)COC2(CCN(C4CCC4)CC2)O3)cc1Cl` [Example 606] yielded a melting point of 209 to 211 °C. Besides, the Ki in data set [1] is under 200 nM. The Ki in data set [2] is under 200 nM.

For the compound `CNC(=O)c1cc(-c2ccc3c(c2)COC2(CCN(C4CCC4)CC2)O3)cs1` [Example 607], the melting point fell in the range of 186 to 188 °C. The Ki in data set [1] is under 200 nM. Also, in data set [2], the Ki is under 200 nM.

`CN(C)C(=O)c1ccc(-c2ccc3c(c2)COC2(CCN(C4CCC4)CC2)O3)cc1Cl` [Example 608] had a melting point of 80 to 82 °C. Further, in data set [1], the Ki is under 200 nM. Moreover, in data set [2], the Ki is under 200 nM.

`Cc1cc(-c2ccc3c(c2)COC2(CCN(C4CCC4)CC2)O3)cnc1O` [Example 609]: the melting point lay in the range of 95.2 to 97 °C. The Ki in data set [1] was under 200 nM. Also, in data set [2], the Ki was under 200 nM.

`COc1ncc(-c2ccc3c(c2)COC2(CCN(C4CCC4)CC2)O3)cc1C` [Example 610] displayed a melting point of 142 to 145 °C. Further, in data set [1], the Ki is under 200 nM. Further, the Ki in data set [2] was under 200 nM.

Compound `O=C(N[C@H]1CCOC1)c1ccc(-c2ccc3c(c2)COC2(CCN(C4CCC4)CC2)O3)cc1Cl` [Example 611] returned a melting point of 185 to 187 °C. In addition, the Ki in data set [1] is under 200 nM. Besides, in data set [2], the Ki was under 200 nM.

On to `CN(C)C(=O)C1CCCN(c2ccc3c(c2)COC2(CCN(C4CCC4)CC2)O3)C1` (stereo not drawn) [Example 612], for which the melting point lay within 51.2 to 54.2 °C. In addition, the inhibition constant (Ki) in data set [1] is under 200 nM. Further, the Ki in data set [2] is under 200 nM.

For `COCCNC(=O)C1CCCN(c2ccc3c(c2)COC2(CCN(C4CCC4)CC2)O3)C1` (stereo not drawn) [Example 613], the melting point lay within 55.4 to 57.3 °C. In data set [1], the Ki was under 200 nM. In addition, the Ki in data set [2] is under 200 nM.

In the case of `O=C(O)C1CCCN(c2ccc3c(c2)COC2(CCN(C4CCC4)CC2)O3)C1` (stereo not drawn) [Example 614], the melting point is 84 to 86.4 °C. Moreover, the Ki in data set [1] lay within 200 to 1000 nM. Also, the Ki in data set [2] was 200 to 1000 nM.

With `Cc1nnc(COc2ccc3c(c2)CCC2(CCN(C4CCC4)CC2)O3)o1` [Example 615], the melting point fell in the range of 97 to 98 °C. For the same compound, in data set [1], the Ki was under 200 nM. Also, the Ki in data set [2] was under 200 nM.

As for `Cc1noc(COc2ccc3c(c2)CCC2(CCN(C4CCC4)CC2)O3)n1` [Example 616], the melting point fell in the range of 95 to 96 °C. Further, the Ki in data set [1] is under 200 nM. The Ki in data set [2] is under 200 nM.

`CS(=O)(=O)c1ccc(COc2ccc3c(c2)CCC2(CCN(C4CCC4)CC2)O3)cc1` [Example 617] came in with a melting point of 142 to 146 °C. Also, the Ki in data set [1] was under 200 nM. Also, in data set [2], the Ki was under 200 nM.

Take `COC(=O)/C=C/c1ccc2c(c1)COC1(CCN(C3CCC3)CC1)O2` [Example 618]: the melting point fell in the range of 131 to 133 °C. The Ki in data set [1] is under 200 nM. Also, the Ki in data set [2] is under 200 nM.

The record behind these values is US8513232B2, “Substituted spirocyclic piperidine derivatives as histamine-3 (H3) receptor ligands” (Cephalon, Inc., priority 2008, dated 2013).
